How the values were obtained:
[1] = Release in vitro of anticancer drugs from the radiopaque microspheres; format: physicochemical; settings: for Time for 50% release / Time for complete release / % elution at 1 h: microspheres with methacrylic acid, 37° C., 150 rpm; for % elution at 1 h: pH 7.4 buffer
Protocol: To study the release of doxorubicin from the microspheres, the sediments are washed in 10 mL of water, before adding 50 mL of buffer 50 mM Tris-HCl, 0.9% NaCl, pH 7.4. Incubation takes place at 37° C. with stirring. The release of doxorubicin is measured at different times at 490 nm.
To study the release of irinotecan, the microspheres are washed in 10 mL of water, and then 50 mL of PBS (10 mM Na2HPO4, 1.8 mM KH2PO4, 138 mM NaCl, 2.7 mM KCl, pH 7.4) equilibrated at 37° C. is added. The release of the drug over time is measured by reading the absorbance at 370 nm.
To study the release of sunitinib, the microspheres are washed in 10 mL of water, and then 50 mL of PBS equilibrated at 37° C. is added. The release of the drug over time is measured by reading the absorbance at 405 nm.
To study the release of vandetanib, the microspheres are washed in 10 mL of water, and then 50 mL of PBS equilibrated at 37° C. is added. The release of the drug over time is measured by reading the absorbance at 254 nm.

[2] = Loading of anticancer drugs on the radiopaque microspheres; format: physicochemical
Protocol: The tests of loading and controlled release of anticancer drugs were performed on radiopaque microspheres of 100-300 µm sterilized by autoclaving and comprising or not comprising an ionized or ionizable monomer such as methacrylic acid.
The microspheres with methacrylic acid are microspheres from batch 13, the composition of which is given in example 3. The microspheres without methacrylic acid have the same composition as the microspheres from batches L1 and L1Bis described in example 5.
Loading with doxorubicin: the target for loading is 37.5 mg of doxorubicin per ml of microspheres. For this, 3.8 mL of doxorubicin-HCl (Adriblastine®, Pfizer) in solution in water at 2.5 mg/mL is added to 250 µL of wet sediment of microspheres. After mixing by inversion, the suspension is made up to 6 mM with sodium bicarbonate (Lavoisier). Loading is carried out at room temperature and with stirring for one hour. Measurement of the residual amount of doxorubicin (absorbance at 490 nm) present in the supernatants serves for determining the amount of drug loaded on the microspheres.
Loading with irinotecan: the loading target is 50 mg of irinotecan per mL of microspheres. […] After 30 minutes, measurement of the residual amount of irinotecan (absorbance at 370 nm) in the supernatant serves for determining the amount loaded on the microspheres.
Loading with sunitinib: The sediments of the radiopaque microspheres are incubated for 1 h at room temperature in 10 mL of sunitinib in the form of malate (LC Laboratories) at 1 mg/mL in water. […] After stirring for 1 h on a wheel, measurement of the residual amount of sunitinib (absorbance at 405 nm) in the supernatant serves for determining the amount loaded on the microspheres.
Loading with vandetanib: The sediments of the radiopaque microspheres are incubated for 2 h at room temperature in 10 mL of a water/DMSO (1/1) mixture containing 5 mg of vandetanib (LC Laboratories). The residual amount of vandetanib in the supernatants is measured at 254 nm in order to calculate the amount loaded on the microspheres. […]

[3] = 100-300 µm radiopaque microspheres with methacrylic acid (batch 13)

Row | Compound | Time for 50% release [1] | Time for complete release [1] | % elution at 1 h [1] | Loading (mg of drug / mL of wet sediment) [2, 3] | Release (elution in PBS), in words ([1]; compared with irinotecan) | Loading (mg of drug / mL of wet sediment) ([2]; 100-300 µm radiopaque microspheres without methacrylic acid)
1 | CCc1c2c(nc3ccc(OC(=O)N4CCC(N5CCCCC5)CC4)cc13)-c1cc3c(c(=O)n1C2)COC(=O)[C@]3(O)CC [Irinotecan, irinotecan] | 1 h | 1 days | 50% | 46 mg of drug / mL of wet sediment |  | 
2 | COc1cccc2c1C(=O)c1c(O)c3c(c(O)c1C2=O)C[C@@](O)(C(=O)CO)C[C@@H]3O[C@H]1C[C@H](N)[C@H](O)[C@H](C)O1 [Doxorubicin, doxorubicin] | 24 h | 1 week | 26% | 36.8 mg of drug / mL of wet sediment | slower, being spread over several days | 29.8 mg of drug / mL of wet sediment

Source: patent US20230285601A1, “NON DEGRADABLE RADIO-OPAQUE EMBOLISATION MICROSPHERE” (GUERBET, priority 2019, published 2023)
